Reference: ChEMBL document CHEMBL1124341, “1',2'-seco-dideoxynucleosides as potential anti-HIV agents” (J Med Chem, 1989)

Experiments:
[1] = tested on: ATH-8 cell line; assay: Tested against ATH8 cells infected with HIV (2 x 10 e3 virus partials per cell) at concentrations ranging from 1 to 100 µM; No protection; format: functional, cell-based; conditions: Homo sapiens
[2] = tested on: ATH-8 cell line; assay: Tested against ATH8 cells infected with HIV (2 x 10 e3 virus partials per cell) at concentration of 20 µM; Completely protected; format: functional, cell-based; conditions: Homo sapiens

SMILES	Activity [1]	Activity [2]
CCC(CO)OCn1cnc2c(O)nc(N)nc21 (stereo not given)	No protection	
CCC(CO)OCn1cnc2c(O)ncnc21 (stereo not given)	No protection	
CCC(CO)OCn1ccc(N)nc1=O (stereo not given)	No protection	
CCC(CO)OCn1cnc2c(N)ncnc21 (stereo not given)	No protection	
Nc1ncnc2c1ncn2[C@H]1CC[C@@H](CO)O1		Completely protected
